Earlier results in patent publication US20160000088A1, “PROCESS FOR PRODUCING SILVER-ION ANTIBACTERIAL LIQUID, SILVER-ION ANTIBACTERIAL LIQUID PRODUCED BY SAID PROCESS, AND SILVER-ION-CONTAINING PRODUCT CONTAINING SAID ANTIBACTERIAL LIQUID” (TAIKI CORP., LTD., priority 2013, published 2016).

Tested on: Staphylococcus aureus
Settings: silver ion concentration of 10 ppb; nutrient broth added (NB culture)

In the case of silver ions, the “decrease of bacterial count” value is listed as ≥ 2 logs.
